# Assay results as given in PubChem BioAssay (NCI).
# “And” between values parts separate entries of the source, which are not always exact repeats. Identical values can stand only once.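 Method: 48-hour compound exposure of cells in 96-well plates, five concentrations, linear interpolation of endpoints. The concentration for 50% growth inhibition is given as GI50. At the TGI there is no net growth.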
# Tested on: MDA-MB-468 breast
# Assay: DTP human tumour cell line panel, 48 h
SMILES,GI50,TGI
COc1ccc(Cl)cc1Nc1nc(C(F)(F)F)ccc1C(=O)N/N=C/c1ccc(Cl)cc1,3960 nM,> 100000 nM
O=C(NCc1cccnc1)c1ccc([N+](=O)[O-])o1,5310 nM,> 29000 nM
c1csc(-c2[nH]nc3c2CCc2ccccc2-3)c1,175 nM,494 nM
CCNc1nc(-c2ccc(Cl)c(OC)c2)c(-c2ccnc(NCCNS(=O)(=O)c3ccc(Cl)cc3)n2)s1,1960 nM,5610 nM
COc1cc(/C=N/n2cnc3oc(-c4ccccc4)cc3c2=N)cc(CN2CCCCC2)c1O,1800 nM,3650 nM
CC(=O)Nc1ccc(C(=O)COc2cccc(/C=C3\CCc4ccccc4C3=O)c2)cc1,3630 nM,> 100000 nM
O=C1COc2c(CCNCCN(C(=O)CCNCCc3ccc(Cl)c(Cl)c3)C3CCCCC3)ccc(O)c2N1,2770 nM,9420 nM
CS(=O)(=O)Nc1ccc(Nc2c3ccccc3nc3cc(Cl)ccc23)cc1,1990 nM,9880 nM
Oc1ccc(/C=N/Nc2nnc(N/N=C/c3ccc(O)cc3O)c3ccccc23)c(O)c1,355 nM,1770 nM
CCn1c(SC)nnc1-c1cc2c([nH]c3ccccc32)c(-c2cccc(O)c2)n1,598 nM,8220 nM
COc1cc(/C=C/C(=O)c2c(-c3ccc(Cl)cc3)nc3sc(C)nn23)cc(OC)c1OC,6470 nM,> 100000 nM
Cc1cc(N(CCCl)CCCl)ccc1/C=N\NC(=O)c1cccnc1,1460 nM,5410 nM
CN1CCN(Cc2ccc(NC(=O)c3cncc(C#Cc4cnc5cccnn45)c3)cc2C(F)(F)F)CC1,1970 nM,8220 nM
Cn1c(=O)c(Oc2ccc(F)cc2F)cc2cnc(NC3CCC(O)CC3)nc21 (centres undefined),> 25000 nM,> 25000 nM
O=C(COC(=O)[C@H](C[Se][Se]C[C@H](NC(=O)c1ccc(Br)cc1F)C(=O)OCC(=O)c1ccc(F)cc1)NC(=O)c1ccc(Br)cc1F)c1ccc(F)cc1,580 nM,1680 nM
CCC(=C(c1ccc(OCCN(CC)CC)cc1)c1ccc(OCCN(CC)CC)cc1)c1ccc(Cl)cc1,535 nM,1050 nM
CN(C)C(=O)c1cc2cnc(Nc3ccc(N4CCNCC4)cn3)nc2n1C1CCCC1,13500 nM,37600 nM
OCCn1c(-c2ccncc2)c(-c2ccc(F)cc2)c2ncccc21,> 25000 nM,> 25000 nM
C/C=C\C(=O)O[C@@H]1CC2O[C@@H]3C=C(C)C(=O)C[C@]3(C)[C@]1(C)[C@]21CO1,567 nM,2130 nM

SMILES,GI50,TGI
COc1ccc(S(=O)(=O)NCCCNc2nccc(-c3c(-c4ccc(F)cc4)nc4sccn34)n2)cc1,4300 nM,> 100000 nM
COc1cc(-c2nn(-c3cccc(NC(=O)c4cccc(C(F)(F)F)c4)c3)cc2-c2ccncc2)ccc1Cl,1320 nM,4560 nM
Fc1ccc(-c2cc3nc(C(Cl)Cl)nc(-c4ccc(F)cc4)n3n2)cc1,242 nM,1080 nM
Cc1cccc(Cc2cnc(NC(=O)CCCOc3ccc(Cl)cc3)s2)c1,1740 nM,> 100000 nM
COc1cc2nccc(Oc3ccc(NC(=O)C4(C(=O)Nc5ccc(F)cc5)CC4)cc3)c2cc1OC,> 10000 nM and 4350 nM,> 10000 nM and 64500 nM
O=C(Nc1cccc(C(F)(F)F)c1)Nc1cc(S(=O)(=O)NC2CC2)ccc1-c1ccsc1,3100 nM,13800 nM
CN1CCN(Cc2ccc(NC(=O)c3cncc(C#Cc4cnc5ccc(NCCCO)nn45)c3)cc2C(F)(F)F)CC1,87 nM,228 nM
Cc1c(-c2ccc(N3CCc4cccc(C(=O)Nc5nc6ccccc6s5)c4C3)nc2C(=O)O)cnn1CC12CC3CC(CC(C3)C1)C2,6580 nM,26500 nM
O=C(Nc1cccc(C(F)(F)F)c1)Nc1ccc(OCc2nnc(-c3ccccc3)o2)c(F)c1,2570 nM,13900 nM
O=C1C(=O)c2c(ccc3ccccc23)-c2ccccc21,1560 nM,3260 nM
CC[C@@H](CO)Nc1ccc2ncc(C#Cc3cncc(C(=O)Nc4ccc(CN5CCN(C)CC5)c(C(F)(F)F)c4)c3)n2n1,77.9 nM,194 nM
O=C(c1ccccc1)c1ccc(N2C(=O)C3C4c5ccccc5C(/C=C/C(=O)c5ccccn5)(c5ccccc54)C3C2=O)cc1 (centres undefined),2390 nM,6990 nM
CC(=O)OC1CCC2(C)C(=CCC3C4CC(CN5CC5)C(=O)C4(C)CCC32)C1 (centres undefined),1680 nM,4490 nM
C/C(=N\NC(=O)c1ccncc1)c1ccccc1O,2040 nM,9060 nM
COc1ccc(C[C@H](N)C(=O)N[C@@H]2[C@@H](CO)OC(n3cnc4c(N(C)C)ncnc43)[C@@H]2O)cc1 (some centres undefined),134 nM,678 nM
CCc1c[nH]c2ncnc(N3CC[C@](N)(CNC(=O)c4ccc(F)cc4F)C3)c12,139 nM,2230 nM
Nc1ccc(N)c2c1C(=O)c1cccc([N+](=O)[O-])c1C2=O,3410 nM,> 56800 nM
COc1cc2c(cc1OCCCN1CCN(CCCn3c4ccccc4c4ccccc43)CC1)N=C[C@@H]1CCCN1C2=O,23.8 nM,67.7 nM
